Values of other authors in article doi:10.1101/2025.09.30.679517v1 (bioRxiv, 2025).

Settings: human, in vivo, po

## COc1ccc2c(c1)[C@]13CCCC[C@@H]1[C@H](C2)N(C)CC3 [dextromethorphan]
  primary endpoints: reached all primary endpoints
  tolerability: well-tolerated by patients
